# Several values for one entry are separate records, joined by “and”; a condition that tells them apart may be missing. Equal values may be shown once. Read-outs that look alike come from different tables or passages of the source.
# Key:
# [1] = biological target: FGFR1 (Homo sapiens, UniProt P11362); assay: Z'-LYTE kinase enzyme inhibition assay, FGFR1; format: biochemical
# [2] = tested on: FGFR1; assay: Z'-LYTE kinase enzyme inhibition assay, FGFR1; format: biochemical; conditions: for FGFR1-SI: selectivity index IC50/IC50, lowest IC50 of the compound = 1; for FGFR selectivity (in words): among FGFR1-4
# [3] = biological target: FGFR3 (Homo sapiens, UniProt P22607); assay: biochemical; format: biochemical
# FGFR3 (Homo sapiens, UniProt P22607), sequence (P22607 23-806): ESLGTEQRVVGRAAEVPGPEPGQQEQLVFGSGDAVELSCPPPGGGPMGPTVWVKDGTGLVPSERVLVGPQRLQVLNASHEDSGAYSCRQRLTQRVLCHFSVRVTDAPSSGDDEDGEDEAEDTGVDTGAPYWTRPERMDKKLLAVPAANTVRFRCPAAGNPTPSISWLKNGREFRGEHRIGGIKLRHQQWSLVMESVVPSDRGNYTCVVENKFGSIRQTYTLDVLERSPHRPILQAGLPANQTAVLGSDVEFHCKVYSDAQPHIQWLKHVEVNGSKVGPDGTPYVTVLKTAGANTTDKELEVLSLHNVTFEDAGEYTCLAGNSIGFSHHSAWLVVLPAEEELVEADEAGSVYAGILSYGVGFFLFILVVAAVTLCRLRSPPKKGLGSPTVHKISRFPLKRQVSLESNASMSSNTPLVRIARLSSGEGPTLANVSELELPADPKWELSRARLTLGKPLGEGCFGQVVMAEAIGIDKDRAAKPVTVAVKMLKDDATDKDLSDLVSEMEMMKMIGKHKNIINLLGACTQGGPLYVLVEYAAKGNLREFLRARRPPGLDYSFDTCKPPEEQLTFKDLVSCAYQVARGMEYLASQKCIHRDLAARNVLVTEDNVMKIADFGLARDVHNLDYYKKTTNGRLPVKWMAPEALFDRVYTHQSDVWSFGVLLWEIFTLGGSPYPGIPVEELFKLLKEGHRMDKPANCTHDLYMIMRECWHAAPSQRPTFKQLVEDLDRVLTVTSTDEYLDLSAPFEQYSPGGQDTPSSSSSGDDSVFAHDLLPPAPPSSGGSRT
# [4] = tested on: FGFR3; assay: biochemical; format: biochemical; conditions: for FGFR selectivity (in words): among FGFR1-4
# [5] = biological target: FGFR4 (Homo sapiens, UniProt P22455); assay: biochemical; format: biochemical
# FGFR4, sequence (P22455 22-802): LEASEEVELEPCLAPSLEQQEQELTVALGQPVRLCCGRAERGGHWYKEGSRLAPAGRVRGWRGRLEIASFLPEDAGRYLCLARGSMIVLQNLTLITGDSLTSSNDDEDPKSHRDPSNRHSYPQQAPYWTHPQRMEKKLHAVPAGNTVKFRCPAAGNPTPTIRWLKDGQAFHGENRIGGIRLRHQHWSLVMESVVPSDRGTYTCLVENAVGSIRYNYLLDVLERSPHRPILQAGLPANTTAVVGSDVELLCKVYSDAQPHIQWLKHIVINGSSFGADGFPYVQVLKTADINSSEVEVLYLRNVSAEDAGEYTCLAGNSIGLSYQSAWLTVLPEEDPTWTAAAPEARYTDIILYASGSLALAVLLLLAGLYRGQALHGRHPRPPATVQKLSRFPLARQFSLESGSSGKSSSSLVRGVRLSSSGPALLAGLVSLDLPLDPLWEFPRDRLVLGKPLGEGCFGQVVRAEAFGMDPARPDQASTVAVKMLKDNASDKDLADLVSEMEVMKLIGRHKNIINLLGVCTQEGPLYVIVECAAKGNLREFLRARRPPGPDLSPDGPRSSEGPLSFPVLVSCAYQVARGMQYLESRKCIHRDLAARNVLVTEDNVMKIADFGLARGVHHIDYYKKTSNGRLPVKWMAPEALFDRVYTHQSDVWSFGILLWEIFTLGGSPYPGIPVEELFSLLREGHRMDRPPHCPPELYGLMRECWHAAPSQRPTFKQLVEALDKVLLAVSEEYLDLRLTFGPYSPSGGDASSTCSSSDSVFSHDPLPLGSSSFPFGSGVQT
# [6] = tested on: NIH-3T3 cells; assay: WST-1 cytotoxicity assay; format: cell-based, mouse; conditions: Mus musculus, NIH3T3, 48 h, read-out: NIH-3T3 Cells IC50
# [7] = biological target: FGFR2 (Homo sapiens, UniProt P21802); assay: biochemical; conditions: FGFR2-IC50
# FGFR2 (Homo sapiens, UniProt P21802), sequence (P21802 22-821): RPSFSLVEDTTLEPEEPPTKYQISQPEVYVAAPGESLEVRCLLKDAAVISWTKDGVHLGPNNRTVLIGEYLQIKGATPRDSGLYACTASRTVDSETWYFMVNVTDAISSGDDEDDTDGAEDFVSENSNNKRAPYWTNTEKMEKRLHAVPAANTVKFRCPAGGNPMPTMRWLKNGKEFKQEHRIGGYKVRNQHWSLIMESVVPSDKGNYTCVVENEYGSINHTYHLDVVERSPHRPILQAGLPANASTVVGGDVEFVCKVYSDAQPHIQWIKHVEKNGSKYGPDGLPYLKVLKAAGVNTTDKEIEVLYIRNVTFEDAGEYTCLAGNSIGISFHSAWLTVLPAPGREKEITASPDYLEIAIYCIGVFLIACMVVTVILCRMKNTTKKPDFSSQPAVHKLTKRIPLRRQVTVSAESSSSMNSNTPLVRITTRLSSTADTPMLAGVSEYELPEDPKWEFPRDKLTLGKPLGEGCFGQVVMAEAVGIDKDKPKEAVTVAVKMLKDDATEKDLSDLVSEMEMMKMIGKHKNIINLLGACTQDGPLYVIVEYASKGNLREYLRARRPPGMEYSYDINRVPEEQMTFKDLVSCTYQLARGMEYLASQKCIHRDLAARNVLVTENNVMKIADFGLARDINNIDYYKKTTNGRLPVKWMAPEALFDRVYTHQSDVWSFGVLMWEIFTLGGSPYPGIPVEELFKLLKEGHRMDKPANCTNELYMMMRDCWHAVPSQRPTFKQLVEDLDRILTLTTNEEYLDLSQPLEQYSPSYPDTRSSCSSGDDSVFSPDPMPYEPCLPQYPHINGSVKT
# [8] = tested on: FGFR2; assay: biochemical; conditions: for FGFR selectivity (in words): among FGFR1-4; for FGFR2-SI: selectivity index IC50/IC50, lowest IC50 of the compound = 1
# [9] = selectivity index IC50/IC50, lowest IC50 of the compound = 1
# FGFR1 (Homo sapiens, UniProt P11362), sequence (P11362 22-822): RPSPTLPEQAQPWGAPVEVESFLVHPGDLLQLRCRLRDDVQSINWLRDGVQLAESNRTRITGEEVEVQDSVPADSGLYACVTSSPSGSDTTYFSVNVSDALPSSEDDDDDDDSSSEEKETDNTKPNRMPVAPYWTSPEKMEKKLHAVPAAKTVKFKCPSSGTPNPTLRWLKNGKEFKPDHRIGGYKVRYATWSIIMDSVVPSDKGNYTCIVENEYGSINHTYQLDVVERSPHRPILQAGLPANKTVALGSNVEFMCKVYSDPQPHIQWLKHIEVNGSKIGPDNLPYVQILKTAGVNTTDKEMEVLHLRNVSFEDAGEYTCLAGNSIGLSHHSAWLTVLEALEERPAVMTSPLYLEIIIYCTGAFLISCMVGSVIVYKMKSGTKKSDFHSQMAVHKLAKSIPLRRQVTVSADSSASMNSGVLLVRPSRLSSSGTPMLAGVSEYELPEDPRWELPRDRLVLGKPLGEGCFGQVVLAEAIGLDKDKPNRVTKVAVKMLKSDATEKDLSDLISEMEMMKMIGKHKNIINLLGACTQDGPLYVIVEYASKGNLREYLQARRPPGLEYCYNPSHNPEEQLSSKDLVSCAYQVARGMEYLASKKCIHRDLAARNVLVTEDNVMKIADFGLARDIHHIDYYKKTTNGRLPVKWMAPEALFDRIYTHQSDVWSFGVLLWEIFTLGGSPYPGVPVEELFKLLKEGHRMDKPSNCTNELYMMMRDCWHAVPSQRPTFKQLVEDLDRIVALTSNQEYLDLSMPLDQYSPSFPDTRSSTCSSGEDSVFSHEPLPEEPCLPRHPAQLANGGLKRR
IC50 ([1]; FGFR1-IC50),FGFR1-SI [2],IC50 ([3]; FGFR3-IC50),FGFR4-SI [5],IC50 [5],IC50 ([1]; read-out: FGFR1-IC50),IC50 ([3]; read-out: FGFR3-IC50),IC50 ([5]; read-out: FGFR4-IC50),FGFR selectivity (in words) [2],better inhibitory potency against FGFR2 than FGFR1 ([2]; FGFR1 in compare to FGFR2),IC50 [7],better inhibitory potency against FGFR2 than FGFR4 ([5]; FGFR4 in compare to FGFR2),Compound,FGFR selectivity (in words) [4],"FGFR3-SI [4, 9]",IC50 [6],FGFR3-SI [4],FGFR selectivity (in words) [8],FGFR2-SI [8],better inhibitory potency against FGFR2 than FGFR3 ([4]; FGFR3 in compare to FGFR2)
64.4 ± 1.23 nM,3.369,19.1 ± 3.22 nM,927.339,17700 ± 329 nM,–,–,–,–,–,–,–,"O=C1Nc2ccc(-c3ccc(C(=O)N4CCOCC4)cc3)cc2/C1=C\c1ccc(N2CCC(O)CC2)cc1 [Compound A9, (E)-3-[4-(4-hydroxypiperidin-1-yl)benzylidene]-5-[4-(morpholine-4-carbonyl)phenyl]indolin-2-one]",for FGFR3,1,1140 ± 220 nM,–,–,–,–
–,1,–,24.028,–,422 ± 40.3 nM,481 ± 24.1 nM,10100 ± 322 nM,–,–,–,–,"O=CN1CCN(c2ccc(/C=C3/C(=O)Nc4ccc(-c5ccc(-c6ccc(O)cc6)cc5)cc43)cc2)CC1 [Compound A26, (E)-4-{4-{[5-(4'-hydroxy-[1,1'-biphenyl]-4-yl)-2-oxoindolin-3-ylidene]methyl}phenyl}piperazine-1-carbaldehyde]",–,–,2500 ± 268 nM,1.14,–,–,–
819.8 ± 3.63 nM,61.547,13.3 ± 2.93 nM,542.643,7230 ± 288 nM,–,–,–,–,–,–,–,"CN1CCN(C(=O)c2ccc(-c3ccc4c(c3)/C(=C\c3ccc(N5CCN(C)CC5)cc3)C(=O)N4)cc2)CC1 [Compound A17, (E)-3-[4-(4-methylpiperazin-1-yl)benzylidene]-5-[4-(4-methylpiperazine-1-carbonyl)phenyl]indolin-2-one]",for FGFR3,1,4700 ± 105 nM,–,–,–,–
646 ± 10.9 nM,28.719,22.5 ± 0.737 nM,217.749,4890 ± 402 nM,–,–,–,–,–,–,–,"O=C1Nc2ccc(-c3ccc(C(=O)N4CCCC4)cc3)cc2/C1=C\c1ccc(N2CCC(O)CC2)cc1 [Compound A12, (E)-3-[4-(4-hydroxypiperidin-1-yl)benzylidene]-5-[4-(pyrrolidine-1-carbonyl)phenyl]indolin-2-one]",for FGFR3,1,4960 ± 187 nM,–,–,–,–
107 ± 3.84 nM,1,195 ± 5.61 nM,141.176,15100 ± 313 nM,–,–,–,selectivity to FGFR1 and FGFR3,–,–,–,"O=C1Nc2ccc(-c3ccc(C(=O)N4CCCCC4)cc3)cc2/C1=C\c1ccc(N2CCOCC2)cc1 [Compound A4, (E)-3-(4-morpholinobenzylidene)-5-[4-(piperidine-1-carbonyl)phenyl]indolin-2-one]",–,–,400 ± 100 nM,1.819,–,–,–
19.8 ± 3.32 nM,3.333,1420 ± 423 nM,6247.898,37100 ± 965 nM,–,–,–,–,3.3 fold,5.95 nM,6247.9 fold,"O=C1Nc2ccc(-c3ccc4cc(O)ccc4c3)cc2/C1=C\c1ccc(N2CCOCC2)cc1 [Compound A1, (E)-5-(6-hydroxynaphthalen-2-yl)-3-(4-morpholinobenzylidene)indolin-2-one]",–,–,1580 ± 171 nM,238.648,for FGFR2,1,238.6 fold
67.2 ± 2.92 nM,1,193 ± 39.3 nM,94.136,6320 ± 322 nM,–,–,–,–,–,–,–,"O=CN1CCN(c2ccc(/C=C3/C(=O)Nc4ccc(-c5ccc(C(=O)N6CCCC6)cc5)cc43)cc2)CC1 [Compound A30, (E)-4-{4-{ {2-oxo-5-[4-(pyrrolidine-1-carbonyl)phenyl]indolin-3-ylidene}methyl}phenyl}piperazine-1-carbaldehyde]",–,–,1590 ± 224 nM,2.880,–,–,–
49 ± 0.688 nM,1,1090 ± 47.3 nM,16.785,823 ± 108 nM,–,–,–,selectivity to FGFR1,–,–,–,"O=C1Nc2ccc(-c3ccc(C(=O)N4CCCC4)cc3)cc2/C1=C\c1ccc(N2CCOCC2)cc1 [Compound A6, (E)-3-(4-morpholinobenzylidene)-5-[4-(pyrrolidine-1-carbonyl)phenyl]indolin-2-one]",–,–,818 ± 241 nM,22.297,–,–,–
219 ± 4.32 nM,25.948,3460 ± 510 nM,2514.228,21200 ± 351 nM,–,–,–,–,–,8.44 ± 0.237 nM,–,"O=C1Nc2ccc(-c3ccc(-c4ccc(O)cc4)cc3)cc2/C1=C\c1ccc(N2CCOCC2)cc1 [Compound A2, (E)-5-(4'-hydroxy-[1,1'-biphenyl]-4-yl)-3-(4-morpholinobenzylidene)indolin-2-one]",–,–,949 ± 24.7 nM,409.791,for FGFR2,1,–
155 ± 6.18 nM,1.464,106 ± 2.8 nM,191.383,20200 ± 259 nM,–,–,–,selectivity to FGFR1 and FGFR3,–,–,–,"CN1CCN(C(=O)c2ccc(-c3ccc4c(c3)/C(=C\c3ccc(N5CCC(O)CC5)cc3)C(=O)N4)cc2)CC1 [Compound A11, (E)-3-[4-(4-hydroxypiperidin-1-yl)benzylidene]-5-[4-(4-methylpiperazine-1-carbonyl)phenyl]indolin-2-one]",–,1,87800 ± 4290 nM,–,–,–,–
3976 ± 0.354 nM,3.658,1090 ± 477 nM,5.641,6130 ± 208 nM,–,–,–,–,–,–,–,"O=CN1CCN(c2ccc(/C=C3/C(=O)Nc4ccc(-c5ccc6cc(O)ccc6c5)cc43)cc2)CC1 [Compound A25, (E)-4-{4-{[5-(6-hydroxynaphthalen-2-yl)-2-oxoindolin-3-ylidene]methyl}phenyl}piperazine-1-carbaldehyde]",–,1,24500 ± 306 nM,–,–,–,–
77.3 ± 3.14 nM,2.299,33.6 ± 0.574 nM,209.223,7030 ± 244 nM,–,–,–,–,–,–,–,"O=CN1CCN(c2ccc(/C=C3/C(=O)Nc4ccc(-c5ccc(C(=O)N6CCCCC6)cc5)cc43)cc2)CC1 [Compound A28, (E)-4-{4-{ {2-oxo-5-[4-(piperidine-1-carbonyl)phenyl]indolin-3-ylidene}methyl}phenyl}piperazine-1-carbaldehyde]",–,1,839 ± 232 nM,–,–,–,–
344.7 ± 3.41 nM,20.006,17.2 ± 0.419 nM,1343.587,23200 ± 271 nM,–,–,–,–,–,–,–,"O=C1Nc2ccc(-c3ccc(C(=O)N4CCCCC4)cc3)cc2/C1=C\c1ccc(N2CCC(O)CC2)cc1 [Compound A10, (E)-3-[4-(4-hydroxypiperidin-1-yl)benzylidene]-5-[4-(piperidine-1-carbonyl)phenyl]indolin-2-one]",for FGFR3,1,983 ± 158 nM,–,–,–,–
9130 ± 1760 nM,48.818,187 ± 4.12 nM,32.626,6100 ± 347 nM,–,–,–,–,–,–,–,"CN1CCN(C(=O)c2ccc(-c3ccc4c(c3)/C(=C\c3ccc(N5CCN(C=O)CC5)cc3)C(=O)N4)cc2)CC1 [Compound A29, (E)-4-{4-{ {5-[4-(4-methylpiperazine-1-carbonyl)phenyl]-2-oxoindolin-3-ylidene}methyl}phenyl}piperazine-1-carbaldehyde]",–,1,10100 ± 251 nM,–,–,–,–
256 ± 28.1 nM,17.919,14.3 nM and 14.2 nM,1054.660,15050 ± 64.1 nM,–,–,–,–,–,–,–,"CN1CCN(c2ccc(/C=C3/C(=O)Nc4ccc(-c5ccc(C(=O)N6CCCCC6)cc5)cc43)cc2)CC1 [Compound A16, (E)-3-[4-(4-methylpiperazin-1-yl)benzylidene]-5-[4-(piperidine-1-carbonyl)phenyl]indolin-2-one]",for FGFR3,1,626 ± 140 nM,–,–,–,–
686 ± 27.7 nM,13.054,52.5 ± 4.7 nM,69.878,3670 ± 290 nM,–,–,–,–,–,–,–,"O=C1Nc2ccc(-c3ccc(C(=O)N4CCOCC4)cc3)cc2/C1=C\c1ccc(N2CCOCC2)cc1 [Compound A3, (E)-5-[4-(morpholin-4-carbonyl)phenyl]-3-(4-morpholinobenzylidene)indolin-2-one]",for FGFR3,1,3260 ± 121 nM,–,–,–,–
49.2 ± 2.52 nM,1,156 ± 31.3 nM,295.505,14500 ± 211 nM,–,–,–,selectivity to FGFR1,–,–,–,"CN1CCN(c2ccc(/C=C3/C(=O)Nc4ccc(-c5ccc(C(=O)N6CCCC6)cc5)cc43)cc2)CC1 [Compound A18, (E)-3-[4-(4-methylpiperazin-1-yl)benzylidene]-5-[4-(pyrrolidine-1-carbonyl)phenyl]indolin-2-one]",–,–,2540 ± 146 nM,3.167,–,–,–
38.7 ± 0.504 nM,1,38.8 ± 1.35 nM,382.588,14800 ± 449 nM,–,–,–,selectivity to FGFR1 and FGFR3,–,–,–,"CN1CCN(c2ccc(/C=C3/C(=O)Nc4ccc(-c5ccc(C(=O)N6CCOCC6)cc5)cc43)cc2)CC1 [Compound A15, (E)-3-[4-(4-methylpiperazin-1-yl)benzylidene]-5-[4-(morpholine-4-carbonyl)phenyl]indolin-2-one]",–,1.003,9500 ± 260 nM,–,–,–,–
